Patent US20250281625A1, “FOLIC ACID-CONJUGATED AMINOCLAY BASED NANOCOMPOSITES FOR THE SITE-SPECIFIC DRUG DELIVERY, METHOD FOR THEIR PREPARATION AND THEIR USE” (Dongguk University Industry-Academic Cooperation Foundation, priority 2021, published 2025)

Assays:
[1] = in water; cited from earlier work
colitis-induced mice = assay: in vivo efficacy in dextran sodium sulfate colitis-induced mice; parameters: species or system C57BL/6 mice; conditions: oral, 10 mg/kg once daily for 8 days, DSS colitis mice, day 9
Experimental: (§1) Before inducing colitis, 8-week-old C57BL/6 mice were raised under standard conditions at 21° C. to 22° C. in a 12-hour light/dark cycle for 7 days. On the day of the experiment (Day 0), mice were randomly divided into five groups: a healthy control group and four experimental groups [dextran sodium sulfate administration group (DSS), dextran sodium sulfate and phosphate-buffer saline (PBS) administration group (DSS+PBS), dextran sodium sulfate and infliximab administration group (DSS+IFX), and dextran sodium sulfate and EFA-AC-IFX administration group (DSS+EFA-AC-IFX)]. Colitis was induced in mice by adding 2.0% (w/v) dextran sodium sulfate to drinking water.
(§2) To investigate the therapeutic effect of nanoparticles, colitis-induced mice in each experimental group were orally administered with 200 μL of PBS, infliximab (10 mg/kg), or EFA-AC-IFX (10 mg/kg) once daily for 8 days. On Day 8, drinking water containing dextran sodium sulfate was replaced with pure water. […]
To evaluate the therapeutic efficacy of EFA-AC-IFX for colitis, mouse colon tissues were histologically analyzed using hematoxylin-eosin (H&E) staining. […] The severity of colitis in each colonic section was assessed using a blinded approach by measuring mucosal features, such as epithelial damage, mucosal edema, and inflammatory cell infiltration of the mucosa.

TNF-α = TNF-α concentration in colonic samples of colitis-induced mice (ELISA); assay type: in vivo, C57BL/6 mice; conditions: oral, 10 mg/kg once daily for 8 days, DSS colitis mice, compared to control group
Experimental: as §1
as §2, with “water. During the experiment, changes in body weight, stool consistency, and the presence of blood in the stool or anus were checked daily.” for “water.”
The level of TNF-α, one of the important inflammatory mediators involved in the pathogenesis of ulcerative colitis, is increased by inducing colitis in mice. Therefore, the concentration of TNF-α in colonic samples obtained from each experimental group was quantified using a TNF-α ELISA kit.

Molecule | water solubility [1] | colon length (colitis-induced mice) | concentration of TNF-α in colonic samples (TNF-α)
Nc1nc2ncc(CNc3ccc(C(=O)N[C@@H](CCC(=O)O)C(=O)O)cc3)nc2c(=O)[nH]1 [folic acid] | 0.0016 mg/g |  | 
Infliximab |  | 6.2±0.25 cm | significantly increased compared to the control group
